Reference: ChEMBL document CHEMBL1914411, “Synthesis of lipophilic dimeric C-7/C-7-linked ciprofloxacin and C-6/C-6-linked levofloxacin derivatives. Versatile in vitro biological evaluations of monomeric and dimeric fluoroquinolone derivatives as potential antitumor, antibacterial or antimycobacterial agents” (Eur J Med Chem, 2011)
≈ marks a conversion by molar mass, not a printed value. Calls of active or inactive are those of the source. The rule behind the calls is not given here.

Columns and labels:
Staphylococcus aureus [1] = experiment: Antimicrobial activity against multidrug-resistant Staphylococcus aureus isolate 2 after 18 to 24 hrs by broth microdilution method; assay type: functional
Staphylococcus aureus [2] = experiment: Antimicrobial activity against methicillin-resistant Staphylococcus aureus ATCC 33592 after 18 to 24 hrs by broth microdilution method; assay type: functional
Pseudomonas aeruginosa = experiment: Antimicrobial activity against Pseudomonas aeruginosa CIP 82.118 after 18 to 24 hrs by broth microdilution method; assay type: functional
Escherichia coli = experiment: Antimicrobial activity against Escherichia coli CIP 53126 after 18 to 24 hrs by broth microdilution method; assay type: functional
Staphylococcus aureus [3] = experiment: Antimicrobial activity against multidrug-resistant Staphylococcus aureus isolate 1 after 18 to 24 hrs by broth microdilution method; assay type: functional
Enterococcus hirae = experiment: Antimicrobial activity against Enterococcus hirae CIP 5855 after 18 to 24 hrs by broth microdilution method; assay type: functional
Staphylococcus aureus [4] = experiment: Antimicrobial activity against methicillin-resistant Staphylococcus aureus ATCC 33591 after 18 to 24 hrs by broth microdilution method; assay type: functional
Staphylococcus aureus [5] = experiment: Antimicrobial activity against Staphylococcus aureus CIP 4.83 after 18 to 24 hrs by broth microdilution method; assay type: functional
[6] = test system: Mycobacterium tuberculosis; experiment: Antimycobacterial activity against Mycobacterium tuberculosis H37Rv assessed as growth inhibition at 0.1 uM after 6 days by MTT colorimetric microassay; assay type: functional, organism-based
[7] = test system: Mycobacterium tuberculosis; experiment: Antimycobacterial activity against Mycobacterium tuberculosis H37Rv assessed as growth inhibition at 10 uM after 6 days by MTT colorimetric microassay; assay type: functional; settings: 144 h, read-out: GI

Row | SMILES | MBC (Staphylococcus aureus [1]) | MIC (Staphylococcus aureus [1]) | MBC (Staphylococcus aureus [2]) | MIC (Staphylococcus aureus [2]) | MBC (Pseudomonas aeruginosa) | MIC (Pseudomonas aeruginosa) | MBC (Escherichia coli) | MIC (Escherichia coli) | MBC (Staphylococcus aureus [3]) | MIC (Staphylococcus aureus [3]) | MBC (Enterococcus hirae) | MIC (Enterococcus hirae) | MBC (Staphylococcus aureus [4]) | MIC (Staphylococcus aureus [4]) | MBC (Staphylococcus aureus [5]) | MIC (Staphylococcus aureus [5]) | growth inhibition (GI) [6] | inhibition of growth at 10 µM [7]
1 | CC(C)(C)C(=O)N1CCN(c2cc3c(cc2F)c(=O)c(C(=O)O)cn3C2CC2)CC1 | 31.2 µM (≈ 13 µg/mL) | 31.2 µM (≈ 13 µg/mL) | 0.48 µM (≈ 0.199 µg/mL) | 0.24 µM (≈ 0.0997 µg/mL) | 250 µM (≈ 104 µg/mL) | 62.5 µM (≈ 26 µg/mL) | 31.2 µM (≈ 13 µg/mL) | 15.6 µM (≈ 6.48 µg/mL) | 500 µM (≈ 208 µg/mL) | 31.2 µM (≈ 13 µg/mL) | 7.8 µM (≈ 3.24 µg/mL) | 7.8 µM (≈ 3.24 µg/mL) | 0.48 µM (≈ 0.199 µg/mL) | 0.48 µM (≈ 0.199 µg/mL) | ≤ 0.97 µM | ≤ 0.48 µM | inactive | 
2 | CCCC(=O)N1CCN(c2cc3c(cc2F)c(=O)c(C(=O)O)cn3C2CC2)CC1 | 62.5 µM (≈ 25.1 µg/mL) | 31.2 µM (≈ 12.5 µg/mL) | 0.48 µM (≈ 0.193 µg/mL) | 0.24 µM (≈ 0.0963 µg/mL) | 250 µM (≈ 100 µg/mL) | 62.5 µM (≈ 25.1 µg/mL) | 7.8 µM (≈ 3.13 µg/mL) | 7.8 µM (≈ 3.13 µg/mL) | 62.5 µM (≈ 25.1 µg/mL) | 31.2 µM (≈ 12.5 µg/mL) | 7.8 µM (≈ 3.13 µg/mL) | 7.8 µM (≈ 3.13 µg/mL) | 0.48 µM (≈ 0.193 µg/mL) | 0.48 µM (≈ 0.193 µg/mL) | ≤ 0.48 µM | ≤ 0.48 µM | inactive | 
3 | O=C(O)c1cn(C2CC2)c2cc(N3CCN(C(=O)CO)CC3)c(F)cc2c1=O | 62.5 µM (≈ 24.3 µg/mL) | 62.5 µM (≈ 24.3 µg/mL) | 1.9 µM (≈ 0.74 µg/mL) | 0.24 µM (≈ 0.0935 µg/mL) | 250 µM (≈ 97.3 µg/mL) | 15.6 µM (≈ 6.07 µg/mL) | 1.9 µM (≈ 0.74 µg/mL) | ≤ 0.97 µM | > 500 µM | 125 µM (≈ 48.7 µg/mL) | 7.8 µM (≈ 3.04 µg/mL) | 7.8 µM (≈ 3.04 µg/mL) | 1.9 µM (≈ 0.74 µg/mL) | 0.97 µM (≈ 0.378 µg/mL) | 1.9 µM (≈ 0.74 µg/mL) | ≤ 0.97 µM | inactive | 
4 | O=C(CCCCCCCCCCCCCC(=O)OCN1CCN(c2cc3c(cc2F)c(=O)c(C(=O)O)cn3C2CC2)CC1)OCN1CCN(c2cc3c(cc2F)c(=O)c(C(=O)O)cn3C2CC2)CC1 | 62.5 µM (≈ 59.9 µg/mL) | 31.2 µM (≈ 29.9 µg/mL) | 0.97 µM (≈ 0.93 µg/mL) | 0.12 µM (≈ 0.115 µg/mL) | 250 µM (≈ 240 µg/mL) | 62.5 µM (≈ 59.9 µg/mL) | 62.5 µM (≈ 59.9 µg/mL) | 31.2 µM (≈ 29.9 µg/mL) | 500 µM (≈ 480 µg/mL) | 62.5 µM (≈ 59.9 µg/mL) | 15.6 µM (≈ 15 µg/mL) | 7.8 µM (≈ 7.48 µg/mL) | 1.9 µM (≈ 1.82 µg/mL) | 0.48 µM (≈ 0.46 µg/mL) | ≤ 0.48 µM | ≤ 0.12 µM | inactive | 
5 | CCC(=O)N1CCN(c2cc3c(cc2F)c(=O)c(C(=O)O)cn3C2CC2)CC1 | 31.2 µM (≈ 12.1 µg/mL) | 31.2 µM (≈ 12.1 µg/mL) | 0.48 µM (≈ 0.186 µg/mL) | 0.24 µM (≈ 0.093 µg/mL) | 250 µM (≈ 96.9 µg/mL) | 31.2 µM (≈ 12.1 µg/mL) | 500 µM (≈ 194 µg/mL) | 3.9 µM (≈ 1.51 µg/mL) | 500 µM (≈ 194 µg/mL) | 62.5 µM (≈ 24.2 µg/mL) | 3.9 µM (≈ 1.51 µg/mL) | 3.9 µM (≈ 1.51 µg/mL) | 0.97 µM (≈ 0.376 µg/mL) | 0.48 µM (≈ 0.186 µg/mL) | ≤ 0.97 µM | ≤ 0.48 µM | inactive | 
6 | CC(C)(C)OC(=O)N1CCN(c2cc3c(cc2F)c(=O)c(C(=O)O)cn3C2CC2)CC1 | 31.2 µM (≈ 13.5 µg/mL) | 15.6 µM (≈ 6.73 µg/mL) | 0.48 µM (≈ 0.207 µg/mL) | 0.12 µM (≈ 0.0518 µg/mL) | 250 µM (≈ 108 µg/mL) | 15.6 µM (≈ 6.73 µg/mL) | 1.9 µM (≈ 0.82 µg/mL) | 1.9 µM (≈ 0.82 µg/mL) | 500 µM (≈ 216 µg/mL) | 31.2 µM (≈ 13.5 µg/mL) | 15.6 µM (≈ 6.73 µg/mL) | 15.6 µM (≈ 6.73 µg/mL) | 0.48 µM (≈ 0.207 µg/mL) | 0.06 µM (≈ 0.0259 µg/mL) | ≤ 0.24 µM | ≤ 0.12 µM | inactive | 
7 | O=C(O)c1cn(C2CC2)c2cc(N3CCN(C(=O)CCCCCCCCCCC(=O)N4CCN(c5cc6c(cc5F)c(=O)c(C(=O)O)cn6C5CC5)CC4)CC3)c(F)cc2c1=O | 500 µM (≈ 428 µg/mL) | 125 µM (≈ 107 µg/mL) | 1.9 µM (≈ 1.63 µg/mL) | 0.12 µM (≈ 0.103 µg/mL) | 250 µM (≈ 214 µg/mL) | 62.5 µM (≈ 53.6 µg/mL) | 62.5 µM (≈ 53.6 µg/mL) | 62.5 µM (≈ 53.6 µg/mL) | 500 µM (≈ 428 µg/mL) | 125 µM (≈ 107 µg/mL) | 500 µM (≈ 428 µg/mL) | 125 µM (≈ 107 µg/mL) | 3.9 µM (≈ 3.34 µg/mL) | 0.48 µM (≈ 0.411 µg/mL) | ≤ 0.97 µM | ≤ 0.12 µM | inactive | 
8 | O=C(CCCCCCCCCCC(=O)OCN1CCN(c2cc3c(cc2F)c(=O)c(C(=O)O)cn3C2CC2)CC1)OCN1CCN(c2cc3c(cc2F)c(=O)c(C(=O)O)cn3C2CC2)CC1 | 250 µM (≈ 229 µg/mL) | 62.5 µM (≈ 57.3 µg/mL) | 0.48 µM (≈ 0.44 µg/mL) | 0.24 µM (≈ 0.22 µg/mL) | 125 µM (≈ 115 µg/mL) | 62.5 µM (≈ 57.3 µg/mL) | 62.5 µM (≈ 57.3 µg/mL) | 31.2 µM (≈ 28.6 µg/mL) | 250 µM (≈ 229 µg/mL) | 125 µM (≈ 115 µg/mL) | 31.2 µM (≈ 28.6 µg/mL) | 31.2 µM (≈ 28.6 µg/mL) | 3.9 µM (≈ 3.58 µg/mL) | 1.9 µM (≈ 1.74 µg/mL) | ≤ 0.97 µM | ≤ 0.97 µM | inactive | 
9 | CCOC(=O)N1CCN(c2cc3c(cc2F)c(=O)c(C(=O)O)cn3C2CC2)CC1 | 125 µM (≈ 50.4 µg/mL) | 62.5 µM (≈ 25.2 µg/mL) | 1.9 µM (≈ 0.766 µg/mL) | 0.48 µM (≈ 0.194 µg/mL) | 250 µM (≈ 101 µg/mL) | 62.5 µM (≈ 25.2 µg/mL) | 31.2 µM (≈ 12.6 µg/mL) | 7.8 µM (≈ 3.15 µg/mL) | 500 µM (≈ 202 µg/mL) | 125 µM (≈ 50.4 µg/mL) | 3.9 µM (≈ 1.57 µg/mL) | 3.9 µM (≈ 1.57 µg/mL) | 1.9 µM (≈ 0.766 µg/mL) | 0.97 µM (≈ 0.391 µg/mL) | ≤ 0.97 µM | ≤ 0.97 µM | inactive | 
10 | CCCCCC(=O)OCOC(=O)c1cn2c3c(c(N4CCN(C)CC4)c(F)cc3c1=O)OC[C@@H]2C |  |  |  |  |  |  |  |  |  |  |  |  |  |  |  |  | inactive | > 95%
